Legend:
myeloperoxidase [1] = target: T1, myeloperoxidase (Homo sapiens, UniProt P05164); assay: MPO Peroxidation Assay (Amplex Red Assay); type: biochemical; conditions: potency range class, read-out: Amplex Red Assay IC50 value
T1 sequence (P05164 49-745): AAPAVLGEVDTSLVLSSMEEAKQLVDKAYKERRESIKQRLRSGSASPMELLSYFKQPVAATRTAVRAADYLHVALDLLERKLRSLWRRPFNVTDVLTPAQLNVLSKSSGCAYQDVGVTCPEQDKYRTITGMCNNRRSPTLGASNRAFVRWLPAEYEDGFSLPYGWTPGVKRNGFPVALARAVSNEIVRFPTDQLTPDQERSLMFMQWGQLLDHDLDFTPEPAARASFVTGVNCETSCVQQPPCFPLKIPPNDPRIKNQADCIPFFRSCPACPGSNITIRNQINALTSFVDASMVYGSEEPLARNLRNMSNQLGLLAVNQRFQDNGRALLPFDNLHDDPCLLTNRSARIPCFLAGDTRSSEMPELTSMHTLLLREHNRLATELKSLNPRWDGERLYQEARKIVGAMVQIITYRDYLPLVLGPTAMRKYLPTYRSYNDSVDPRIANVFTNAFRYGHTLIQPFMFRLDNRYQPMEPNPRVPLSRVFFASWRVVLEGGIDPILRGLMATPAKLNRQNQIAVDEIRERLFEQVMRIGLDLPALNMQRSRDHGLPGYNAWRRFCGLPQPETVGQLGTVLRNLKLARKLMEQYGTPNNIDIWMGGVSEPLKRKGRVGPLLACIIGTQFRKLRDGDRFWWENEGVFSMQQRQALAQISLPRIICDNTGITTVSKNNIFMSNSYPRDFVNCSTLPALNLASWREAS

myeloperoxidase [2] = target: T1, myeloperoxidase; assay: MPO Chlorination Assay (APF Assay); type: biochemical; conditions: potency range class, read-out: APF Assay IC50 value

SMILES | IC50 (myeloperoxidase [1]) | IC50 (myeloperoxidase [2])
N#CC1(c2ccccc2)CCC(NCCC(c2ccccc2)c2cc(N)nc3[nH]nnc23)CC1 (stereo not drawn) [Example 177, 4-((3-(5-amino-3H-[1,2,3]triazolo[4,5-b]pyridin-7-yl)-3-phenylpropyl)amino)-1-phenylcyclohexane-1-carbonitrile] | 101 to 999 nM | 1 to 100 nM
Nc1cc([C@H](CCNC2CC[C@H](c3ccccc3)[C@@H](O)C2)c2ccccc2)c2nn[nH]c2n1 (stereo partly drawn) [Example 183, (1S,2R)-5-{[(3R)-3-{5-amino-3H-[1,2,3]triazolo [4,5-b]pyridin-7-yl}-3-phenylpropyl]amino}-2-phenylcyclohexan-1-ol] | 1000 to 10000 nM | 1 to 100 nM
Nc1cc(C(CCN2CCC(c3ccccc3)CC2)c2ccccc2)c2nn[nH]c2n1 (stereo not drawn) [Example 186, 7-[1-phenyl-3-(4-phenylpiperidin-1-yl)propyl]-3H-[1,2,3] triazolo[4,5-b] pyridin-5-amine] | 1000 to 10000 nM | 101 to 999 nM
Nc1cc(C(CCN2CCC(Cc3ccccc3)CC2)c2ccccc2)c2nn[nH]c2n1 (stereo not drawn) [Example 187, 7-[3-(4-benzylpiperidin-1-yl)-1-phenylpropyl]-3H-[1,2,3]triazolo [4,5-b]pyridin-5-amine] | 1000 to 10000 nM | 1 to 100 nM
Nc1cc(C(CCNC2CCc3ccccc3C2)c2ccccc2)c2nn[nH]c2n1 (stereo not drawn) [Example 188, 7-{1-phenyl-3-[(1,2,3,4-tetrahydronaphthalen-2-yl)amino]propyl}-3H-[1,2,3]triazolo [4,5-b]pyridin-5-amine] | 101 to 999 nM | 1 to 100 nM
CNC(=O)CN(CC[C@H](c1ccccc1)c1cc(N)nc2[nH]nnc12)C12CCC(c3ccccc3)(CC1)CC2 [Example 191, 2-{[(3R)-3-{5-amino-3H-[1,2,3]triazolo [4,5-b]pyridin-7-yl}-3-phenylpropyl]({4-phenylbicyclo[2.2.2]octan-1-yl})amino}-N-methylacetamide] | 101 to 999 nM | 1 to 100 nM
Nc1cc([C@H](CCN(CC2CCCO2)C23CCC(c4ccccc4)(CC2)CC3)c2ccccc2)c2nn[nH]c2n1 (stereo partly drawn) [Example 195, 7-[(1R)-3-{[(oxolan-2-yl)methyl]({4-phenylbicyclo [2.2.2]octan-1-yl})amino}-1-phenylpropyl]-3H-[1,2,3]triazolo[4,5-b]pyridin-5-amine] | 101 to 999 nM | 1 to 100 nM
COCCN(CC[C@H](c1ccccc1)c1cc(N)nc2[nH]nnc12)C12CCC(c3ccccc3)(CC1)CC2 [Example 196, 7-[(1R)-3-[(2-methoxyethyl)({4-phenylbicyclo[2.2.2]octan-1-yl})amino]-1-phenylpropyl]-3H-[1,2,3]triazolo[4,5-b]pyridin-5-amine] | 101 to 999 nM | 1 to 100 nM
Nc1cc([C@H](CCN(CC(F)F)C23CCC(c4ccccc4)(CC2)CC3)c2ccccc2)c2nn[nH]c2n1 [Example 197, 7-[(1R)-3-[(2,2-difluoroethyl)({4-phenylbicyclo[2.2.2]octan-1-yl})amino]-1-phenylpropyl]-3H-[1,2,3]triazolo[4,5-b]pyridin-5-amine] | 101 to 999 nM | 1 to 100 nM
Nc1cc([C@H](CC(=O)NC23CCC(c4ccccc4)(CC2)C(O)C3)c2ccccc2)c2nn[nH]c2n1 (stereo partly drawn) [Example 201, (3R)-3-{5-amino-3H-[1,2,3]triazolo[4,5-b]pyridin-7-yl}-N-{3-hydroxy-4-phenylbicyclo [2.2.2]octan-1-yl}-3-phenylpropanamide] | 101 to 999 nM | 1 to 100 nM
Nc1cc([C@H](CC(=O)NC23CCC(c4ccccc4)(CC2)CC3)c2cccc(O)c2)c2nn[nH]c2n1 [Example 202, (3R)-3-{5-amino-3H-[1,2,3]triazolo[4,5-b]pyridin-7-yl}-3-(3-hydroxyphenyl)-N-{4-phenylbicyclo [2.2.2]octan-1-yl} propanamide] | 101 to 999 nM | 1 to 100 nM

Other lines, results leading:

IC50 (myeloperoxidase [1]) | IC50 (myeloperoxidase [2]) | SMILES
101 to 999 nM | 1 to 100 nM | Nc1cc(C(CCNCC2CC2c2ccc(F)cc2)c2ccccc2)c2nn[nH]c2n1 (stereo not drawn) [Example 176, 7-[3-({[2-(4-fluorophenyl)cyclopropyl]methyl}amino)-1-phenylpropyl]-3H-[1,2,3]triazolo[4,5-b]pyridin-5-amine]
101 to 999 nM | 1 to 100 nM | Nc1cc(C(CCN[C@@H]2CC[C@@H](c3ccccc3)C[C@@H]2CO)c2ccccc2)c2nn[nH]c2n1 (stereo partly drawn) [Example 180, [(1S,2R,5R)-2-[(3-{5-amino-3H-[1,2,3]triazolo[4,5-b]pyridin-7-yl}-3-phenylpropyl)amino]-5-phenylcyclohexyl] methanol]
101 to 999 nM | 1 to 100 nM | Nc1cc([C@H](CCNC23CCC(c4ccccc4)(CC2)C(=O)C3)c2ccccc2)c2nn[nH]c2n1 [Example 182, 4-{[(3R)-3-{5-amino-3H-[1,2,3]triazolo [4,5-b]pyridin-7-yl}-3-phenylpropyl]amino}-1-phenylbicyclo [2.2.2]octan-2-one]
101 to 999 nM | 1 to 100 nM | Nc1cc([C@H](CCNC2CC[C@H](c3ccccc3)[C@@H](O)C2)c2ccccc2)c2nn[nH]c2n1 (stereo partly drawn) [Example 184, (1S,2R)-5-{[(3R)-3-{5-amino-3H-[1,2,3]triazolo[4,5-b]pyridin-7-yl}-3-phenylpropyl]amino}-2-phenylcyclohexan-1-ol]
1000 to 10000 nM | 1 to 100 nM | Nc1cc([C@H](CCN2CCC(O)(Cc3ccccc3)CC2)c2ccccc2)c2nn[nH]c2n1 [Example 185, 1-[(3R)-3-{5-amino-3H-[1,2,3]triazolo [4,5-b]pyridin-7-yl}-3-phenylpropyl]-4-benzylpiperidin-4-ol]
101 to 999 nM | 1 to 100 nM | NC(=O)CN(CC[C@H](c1ccccc1)c1cc(N)nc2[nH]nnc12)C12CCC(c3ccccc3)(CC1)CC2 [Example 190, (R)-2-((3-(5-amino-3H-[1,2,3]triazolo[4,5-b]pyridin-7-yl)-3-phenylpropyl)(4-phenylbicyclo[2.2.2]octan-1-yl)amino)acetamide]
1000 to 10000 nM | 1 to 100 nM | CN(C)C(=O)CN(CC[C@H](c1ccccc1)c1cc(N)nc2[nH]nnc12)C12CCC(c3ccccc3)(CC1)CC2 [Example 192, 2-{[(3R)-3-{5-amino-3H-[1,2,3]triazolo [4,5-b]pyridin-7-yl}-3-phenylpropyl]({4-phenylbicyclo[2.2.2]octan-1-yl})amino}-N,N-dimethylacetamide]
1 to 100 nM | 1 to 100 nM | Nc1cc([C@H](CCN(CC2CCO2)C23CCC(c4ccccc4)(CC2)CC3)c2ccccc2)c2nn[nH]c2n1 (stereo partly drawn) [Example 193, 7-[(1R)-3-{[(oxetan-2-yl)methyl]({4-phenylbicyclo [2.2.2]octan-1-yl})amino}-1-phenylpropyl]-3H-[1,2,3]triazolo[4,5-b]pyridin-5-amine]
1 to 100 nM | 1 to 100 nM | Nc1cc([C@H](CCN(CC(O)C(F)(F)F)C23CCC(c4ccccc4)(CC2)CC3)c2ccccc2)c2nn[nH]c2n1 (stereo partly drawn) [Example 198, 3-{[(3R)-3-{5-amino-3H-[1,2,3]triazolo [4,5-b]pyridin-7-yl}-3-phenylpropyl]({4-phenylbicyclo[2.2.2]octan-1-yl})amino}-1,1,1-trifluoropropan-2-ol]
101 to 999 nM | 1 to 100 nM | Nc1cc([C@H](CC(=O)NC23CCC(c4ccccc4)(CC2)CC3)c2ccccc2)c2nn[nH]c2n1 [Example 200, (R)-3-(5-amino-3H-[1,2,3]triazolo[4,5-b]pyridin-7-yl)-3-phenyl-N-(4-phenylbicyclo[2.2.2]octan-1-yl)propanamide]
